Our source for the maximum recommended daily dose (mmol/kg-bw/day) values is PubChem BioAssay AID1195 (EPA DSSTox, 2008).

In the data set the test system is human maximum recommended daily dose, FDA database. Kind of data set: DSSTox (FDAMDD) FDA Maximum (Recommended) Daily Dose Database. The settings on record: active compounds read low. A digest of the protocol:
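MRDD values come from clinical trials with daily oral dosing, usually for 3–12 months, for the average adult, in mg/day converted to mg/kg-bw/day assuming 60 kg. Antineoplastic mg/m2 doses are divided by 37. Activity score maps log10(1/MRDD mmol) onto 1–100.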

Setting [1] is: TherapeuticCategory: narcotic analgesic.
Setting [2] is: TherapeuticCategory: antihistaminic.
Where [3] appears, read: TherapeuticCategory: antibacterial.
Setting [4] is: TherapeuticCategory: antidiabetic.
Where [5] appears, read: TherapeuticCategory: antihypertensive.
The mark [6] stands for this setting: TherapeuticCategory: antiarrhythmic.

As for `CC(C)=CCN1CC[C@@]2(C)c3cc(O)ccc3C[C@@H]1[C@@H]2C`, the maximum recommended daily dose (mmol/kg-bw/day) under setting [1] was 0.00876.

As to `CC(=O)NO`, the maximum recommended daily dose (mmol/kg-bw/day) (TherapeuticCategory: antiurolithic, antibacterial adjunct) is 0.222.

For `OCC(O)CO`, the maximum recommended daily dose (mmol/kg-bw/day) (TherapeuticCategory: diagnostic aid) is 10.8. On to `O=C(O)P(=O)(O)O`, for which the maximum recommended daily dose (mmol/kg-bw/day) (TherapeuticCategory: antiviral) was 0.625. Take `CN(C)CCN(Cc1ccccc1)c1ccccn1`: under setting [2], the maximum recommended daily dose (mmol/kg-bw/day) was 0.0392. Take `Oc1ccc2c3c1O[C@H]1[C@@H](O)CC[C@@]4(O)[C@@H](C2)N(CC2CCC2)CC[C@]314`: under setting [1], the maximum recommended daily dose (mmol/kg-bw/day) is 0.0028.

As to `COc1ccccc1OCC(O)COC(N)=O` (centres undefined), the maximum recommended daily dose (mmol/kg-bw/day) (TherapeuticCategory: skeletal muscle relaxant) was 0.415. As for `NC(CSCC(=O)O)C(=O)O` (centres undefined), for the setting “TherapeuticCategory: mucolytic, expectorant”, the maximum recommended daily dose (mmol/kg-bw/day) is 0.209. As to `CO/N=C(/C(=O)N[C@@H]1C(=O)N2C(C(=O)OC(C)OC(C)=O)=C(COC(N)=O)CS[C@H]12)c1ccco1` (some centres undefined), the maximum recommended daily dose (mmol/kg-bw/day) under setting [3] was 0.0327. On to `CS(=O)(=O)OCCCCOS(C)(=O)=O`, for which the maximum recommended daily dose (mmol/kg-bw/day) (TherapeuticCategory: antineoplastic) was 0.00054. Take `CC(CN(C)C)CN1c2ccccc2S(=O)(=O)c2ccccc21` (centres undefined): the maximum recommended daily dose (mmol/kg-bw/day) under setting [2] was 0.00202. `CN1CCC(=C2c3ccccc3C=Cc3ccccc32)CC1`: for the setting “TherapeuticCategory: antihistaminic, antipruritic”, the maximum recommended daily dose (mmol/kg-bw/day) is 0.00174. Take `CCOC(=O)N1CCC(=C2c3ccc(Cl)cc3CCc3cccnc32)CC1`: the maximum recommended daily dose (mmol/kg-bw/day) under setting [2] is 0.000436.

For the compound `CN(C)CC/C=C1\c2ccccc2CSc2ccccc21`, for the setting “TherapeuticCategory: antidepressant”, the maximum recommended daily dose (mmol/kg-bw/day) was 0.00846. As for `CC1=C(/C=C/C(C)=C/C=C/C(C)=C/C=C/C=C(C)/C=C/C=C(C)/C=C/C2=C(C)CCCC2(C)C)C(C)(C)CCC1`, the maximum recommended daily dose (mmol/kg-bw/day) (TherapeuticCategory: vitamin A precursor, UV screen) was 9.31e-05. For `CCOC(C)=O`, the maximum recommended daily dose (mmol/kg-bw/day) (TherapeuticCategory: none) was 0.284. `C#C[C@]1(O)CC[C@H]2[C@@H]3CCc4cc(O)ccc4[C@H]3CC[C@@]21C`: under “TherapeuticCategory: estrogen”, the maximum recommended daily dose (mmol/kg-bw/day) was 1.69e-06. As for `CN1CCN(C2=Nc3ccccc3Oc3ccc(Cl)cc32)CC1`, the maximum recommended daily dose (mmol/kg-bw/day) (TherapeuticCategory: anxiolytic) was 0.0127. With `COc1ccc(Cc2nccc3cc(OC)c(OC)cc23)cc1OC`, the maximum recommended daily dose (mmol/kg-bw/day) (TherapeuticCategory: smooth muscle relaxant, cerebral vasodilator) was 0.0295. On to `O=C(O)c1ccccc1C(=O)Nc1ccc(S(=O)(=O)Nc2nccs2)cc1`, for which the maximum recommended daily dose (mmol/kg-bw/day) under setting [3] was 0.496.

Turning to `Cc1ccc(S(=O)(=O)NC(=O)NC2CCCCC2)cc1N`, the maximum recommended daily dose (mmol/kg-bw/day) under setting [4] was 0.0107. Turning to `CCC(=O)O[C@H]1[C@H](O[C@@H]2[C@@H](C)[C@H](O[C@H]3C[C@@](C)(OC)[C@@H](O)[C@H](C)O3)[C@@H](C)C(=O)O[C@H](CC)[C@@](C)(O)[C@H](O)[C@@H](C)C(=O)[C@H](C)C[C@@]2(C)O)O[C@H](C)C[C@@H]1N(C)C`, the maximum recommended daily dose (mmol/kg-bw/day) under setting [3] is 0.0844. On to `CCOC(=O)C1=C(C)NC(C)=C(C(=O)OC)C1c1cccc([N+](=O)[O-])c1` (centres undefined), for which the maximum recommended daily dose (mmol/kg-bw/day) under setting [5] was 0.000924.

For the compound `OCc1cc(C(O)CNCCCCCCOCCCCc2ccccc2)ccc1O` (centres undefined), the maximum recommended daily dose (mmol/kg-bw/day) (TherapeuticCategory: bronchodilator) is 3.37e-06. As to `CCOC(=O)[C@H](CCc1ccccc1)N[C@@H](C)C(=O)N1[C@H](C(=O)O)C[C@@H]2CCC[C@@H]21`, the maximum recommended daily dose (mmol/kg-bw/day) under setting [5] was 0.000799.

Take `NC(N)=NC(N)=NCCc1ccccc1`: the maximum recommended daily dose (mmol/kg-bw/day) under setting [4] was 0.00814.

With `CCOC(=O)C1(c2ccccc2)CCN(CCC(C#N)(c2ccccc2)c2ccccc2)CC1`, where the note is “TherapeuticCategory: antiperistaltic, antidiarrheal”, the maximum recommended daily dose (mmol/kg-bw/day) is 0.000736.

In the case of `CC(=O)NCCOC(=O)C(Oc1cccc(C(F)(F)F)c1)c1ccc(Cl)cc1` (centres undefined), the maximum recommended daily dose (mmol/kg-bw/day) (TherapeuticCategory: antihyperlipoproteinemic, uricosuric) is 0.0402. `O=C(O)CCC(=O)c1ccc(-c2ccccc2)cc1`: the maximum recommended daily dose (mmol/kg-bw/day) (TherapeuticCategory: anti inflammatory) is 0.059.

`c1ccc(C2(c3ccccc3)CC2C2=NCCN2)cc1` (centres undefined): under setting [6], the maximum recommended daily dose (mmol/kg-bw/day) was 0.0248. Turning to `CCN(CC)CCCN(c1ccccc1)C1Cc2ccccc2C1`, the maximum recommended daily dose (mmol/kg-bw/day) under setting [6] was 0.0155.

For `CC(=O)[C@@]1(O)CC[C@H]2[C@@H]3C=C(Cl)C4=CC(=O)CC[C@]4(C)[C@H]3CC[C@@]21C`, for the setting “TherapeuticCategory: progestogen, antineoplastic”, the maximum recommended daily dose (mmol/kg-bw/day) is 9.18e-05. For `Cc1ccc(C)c(OCCCC(C)(C)C(=O)O)c1`, under “TherapeuticCategory: antihyperlipoproteinemic”, the maximum recommended daily dose (mmol/kg-bw/day) was 0.0799. With `CC(=O)OCC1=C(C(=O)O)N2C(=O)[C@@H](NC(=O)CC#N)[C@H]2SC1`, under setting [3], the maximum recommended daily dose (mmol/kg-bw/day) is 0.295.
